Results taken from paper PMC9374667 (Communications Biology, 2022).
Several values for one entry are separate records, joined by “and”; a condition that tells them apart may be missing. Equal values may be shown once.

Experiments:
[1] = tested on: db/db mice; test: Serum CHO, TG, FFA, LDL-C, HDL-C and ADPN in the fasted state; format: in vivo; design: FFA (Figure 4g) / LDL-C (Figure 4h) / HDL-C (Figure 4i) / ADPN (Figure 4j): unit not given here; conditions: db/db mice
Procedure: The serum was collected by centrifugation at 3000 × g at 4 °C for 15 min and stored at −80 °C until analysis. TG, TC, LDL-C, HDL-C, and FFA were routinely tested on a Chemray 240 automatic biochemical analyzer (Chemray 240, Shenzhen, China). Serum levels of mouse adiponectin, interleukin6 (IL-6), tumor necrosis factor-α (TNF-α) were measured using commercial enzyme-linked immunosorbent assay (ELISA) kits (Nanjing Jiancheng Bioengineering Institute, Nanjing, China) and according to the manufacturer’s instructions. The levels of IL-6, TNF-α in 3T3-L1 adipocyte culture supernatant were also detected by ELISA.

[2] = tested on: db/db mice; test: Body weight of db/db mice during 35-day treatment; format: in vivo; conditions: db/db mice
Procedure: The lean wild type control and the db/db control mice were given equal vehicle volume (0.5% CMC-Na solution). All mice were monitored for food intake, body weight, and fasting blood glucose during the 35-day trial. Glucose tolerance test (GTT) and insulin resistance test (ITT) were performed at 4 and 5 weeks of treatment, respectively. Metabolic analysis was performed at 5 weeks of treatment. At the end of the study, blood samples were taken through the retroorbital venous sinus of mice, fat depots (brown fat, inguinal subcutaneous fat, epididymal fat, perirenal fat and mesenteric fat depot) were dissected, weighed, and immediately frozen in liquid nitrogen and stored at −80 °C until required. Weight of fat depots are expressed in percentage (fat depots weight /bodyweight * 100%).

[3] = tested on: Fasn, Acaca, Lpl, Ucp1, Ppargc1a, Ppargc1b, Elovl3, Cox8b; test: qRT-PCR of lipid-metabolism-related genes (eWAT) and thermogenic genes (BAT); format: in vivo; conditions: db/db mice
Excerpt: Total RNA was isolated from 3T3-L1 cells and adipose tissue homogenates using Trizol reagent (Invitrogen, Carlsbad, CA, USA). RNA concentration and purity were examined at 260/280 nm using a nanodrop spectrophotometer (NanoDrop One, Thermo Fisher Scientific, USA). The total RNA was reverse transcribed to cDNA using the EasyScript All-in-One First-Strand cDNA Synthesis SuperMix for qPCR kit (TransGen Biotech, Beijing, China). The quantitative reverse transcription polymerase chain reaction was performed using TransStart Top Green qPCR SuperMix (TransGen Biotech, Beijing, China) and an Applied Biosystems 7500 RealTime PCR System (Life Technologies, USA). Relative expression levels were normalized to gapdh expression and quantified using the 2^-ΔΔCt method. The primers were synthesized by Shanghai Sangon Biotech, and the detailed primer sequences were shown in Supplementary Table 5 in the supplementary materials.

[4] = tested on: glycerol release; test: Glycerol release in eWAT of db/db mice (isoproterenol); format: in vivo; design: Glycerol release in eWAT (Figure 4m): unit not given here
Procedure: The epididymal adipose tissue was dissected, the fresh adipose tissue was weighed and rapidly rinsed with PBS. The adipose tissue was cut and incubated with isoproterenol (10 μM) for 2 h, and homogenized in a cold cleavage buffer to prepare the adipose tissue homogenate. Then the homogenate was centrifuged at 12,000 × g at 4 °C for 15 min, and the supernatant was collected. […] Then the cells were lysed in a petri dish, scraped off, and centrifuged at 12,000 × g at 4 °C for 15 min before the supernatant was collected. […] And concentrations were further standardized according to protein concentration.

[5] = tested on: F4/80-positive macrophages; test: Immunohistochemical staining of eWAT for F4/80; format: in vivo, mice
Procedure: (§1) The adipose tissue was fixed overnight in 4% paraformaldehyde, then embedded in paraffin and cut into 5 µm thick slices. Tissue sections were stained with hematoxylin and eosin (H&E). For immunohistochemistry, sections were incubated with primary antibodies against F4/80 (1:100 dilution) diluted in the blocking solution at 4 °C overnight. The tissue sections were then incubated with the horseradish peroxidase (HRP)-conjugated secondary antibody at room temperature for 2 h. Finally, the sections were developed with diaminobenzidine (DAB) and counterstained with hematoxylin. Images were obtained under a microscope. To quantify the F4/80-positive macrophages, two random fields per sample were analyzed by Image J software. The IHC profiler plugin of ImageJ was used to calculate the F4/80 positive area.

[6] = tested on: db/db mice; test: HE staining of epididymal adipose tissue, adipocyte size; format: in vivo
Procedure: as §1

[7] = BBR 150mg/kg, serum, individual mice 1-6
[8] = 150 mg/kg, fasted state, individual mice
[9] = vs vehicle, BJ 75 and 150 mg/kg, BBR 150 mg/kg, Ibu 150 mg/kg

## COc1ccc2cc3[n+](cc2c1OC)CCc1cc2c(cc1-3)OCO2 [BBR, Berberine chloride dihydrate]
[1]; [7]
  ADPN (Figure 4j): 531.25 and 533.16 and 569.22 and 520.27 and 517.83 and 573.58
  FFA (Figure 4g): 783.9 and 765.7 and 789.7 and 738.2 and 717.7 and 741.1
  HDL-C (Figure 4i): 2.5 and 2.8 and 2.4 and 2.7 and 3
  LDL-C (Figure 4h): 4.79 and 4.96 and 3.72 and 5.17 and 5.15
[1]; [8]
  Serum CHO: 4 mmol/L and 4.5 mmol/L and 5.2 mmol/L and 4.6 mmol/L and 4.2 mmol/L
  Serum TG: 1.66 mmol/L and 1.22 mmol/L and 1.5 mmol/L and 1 mmol/L and 0.96 mmol/L and 1.18 mmol/L
[1]; [9]
  Serum levels of CHO, TG, FFA and LDL-C: decreased
  Serum levels of HDL-C and adiponectin (ADPN): increased
[2]; 150 mg/kg gavage once per day, day 1, individual mice, 150 mg/kg
  Body weight: 41 grams and 40 grams and 42 grams and 36 grams and 39 grams and 37 grams
[2]; 150 mg/kg gavage once per day, day 4, individual mice, 150 mg/kg
  Body weight: 40 grams and 41 grams and 37 grams and 39 grams
[2]; 150 mg/kg gavage once per day, day 7, individual mice, 150 mg/kg
  Body weight: 42 grams and 43 grams and 37 grams and 38 grams and 39 grams and 41 grams
[2]; 150 mg/kg gavage once per day, day 10, individual mice, 150 mg/kg
  Body weight: 42 grams and 43 grams and 44 grams and 38 grams and 39 grams and 40 grams
[2]; 150 mg/kg gavage once per day, day 13, individual mice, 150 mg/kg
  Body weight: 43 grams and 44 grams and 38 grams and 39 grams and 41 grams
[2]; 150 mg/kg gavage once per day, day 16, individual mice, 150 mg/kg
  Body weight: 45 grams and 43 grams and 44 grams and 38 grams and 39 grams and 42 grams and 41 grams
[2]; 150 mg/kg gavage once per day, day 19, individual mice, 150 mg/kg
  Body weight: 44 grams and 43 grams and 37 grams and 40 grams and 42 grams
[2]; 150 mg/kg gavage once per day, day 22, individual mice, 150 mg/kg
  Body weight: 42 grams and 45 grams and 41 grams and 39 grams and 43 grams and 44 grams
[2]; 150 mg/kg gavage once per day, day 25, individual mice, 150 mg/kg
  Body weight: 42 grams and 46 grams and 43 grams and 38 grams and 39 grams and 44 grams and 40 grams and 45 grams
[2]; 150 mg/kg gavage once per day, day 28, individual mice, 150 mg/kg
  Body weight: 44 grams and 47 grams and 43 grams and 39 grams and 45 grams and 46 grams
[2]; 150 mg/kg gavage once per day, day 31, individual mice, 150 mg/kg
  Body weight: 46 grams and 48 grams and 49 grams and 41 grams and 42 grams and 47 grams and 43 grams and 45 grams
[2]; 150 mg/kg gavage once per day, day 34, individual mice, 150 mg/kg
  Body weight: 48 grams and 46 grams and 50 grams and 51 grams and 43 grams and 47 grams and 45 grams
[2]; 150 mg/kg gavage once per day, day 35, mean ± SD
  Average body weight gain: 7.6 ± 0.8 g
[2]; 150 mg/kg gavage once per day, individual mice, 150 mg/kg
  Body weight gain in 5 weeks: 8 grams and 7 grams and 6 grams and 9 grams
[2]; 5 weeks, BJ 75 and 150 mg/kg, BBR 150 mg/kg, Ibu 150 mg/kg
  Body weight compared with vehicle: lower body weight than the db/db mice treated with the vehicle
[3]
  Expression of brown fat enrichment genes (Ucp1, Ppargc1a, Ppargc1b, Elovl3, Cox8b) in BAT: elevated express
[3]; vs vehicle control
  Expression of lipogenic genes (Fasn, Acaca, Lpl) in eWAT: downregulation of lipogenic genes
[4]; db/db mice, isoproterenol stimulation
  Release of glycerol in eWAT: promoted the release of glycerol
[4]; db/db+ISO+BBR 150mg/kg, individual samples 1-6
  Glycerol release in eWAT (Figure 4m): 626.099 and 631.162 and 626.943 and 630.318 and 632.849
[5]; Figure 5k, BBR 150mg/kg, individual values
  Quantification of immunohistochemical staining: 0.8707 and 0.7836 and 0.9995 and 1.2402 and 1.136 and 0.9532
[5]; db/db mice, epididymal fat pads
  Proportion of F4/80-positive macrophages around adipocytes: lower than that of the vehicle-treated db/db mice
[6]; 150 mg/kg, individual cells
  Cell diameter (adipocyte size of eWAT): 112.956 µm and 111.168 µm and 109.684 µm and 107.318 µm and 103.404 µm and 102.799 µm and 102.56 µm and 100.649 µm and 97.9486 µm and 97.2359 µm and 94.5814 µm and 93.4958 µm and 92.5409 µm and 90.4031 µm and 87.905 µm and 126.009 µm and 123.446 µm and 119.401 µm and 113.9 µm and 113.401 µm
[6]; BJ 75 and 150 mg/kg, BBR 150 mg/kg, Ibu 150 mg/kg
  Size of adipocytes in eWAT compared with vehicle: significantly reduced
